# According to patent US20250280827A1, “An antifungal composition comprising natamycin and at least one insecticide” (priority 2021, published 2025):
# Tests used:
# Botrytis cinerea = test: Antifungal effect against Botrytis cinerea infection on wounded peel of banana fruits (Colby synergy); format: in vivo; settings: natamycin-insecticide 1:0 ppm
# Description: (§1) wherein X and Y are the observed antifungal activities (in %) of the individual active ingredients x and y, respectively. If the observed antifungal activity (O in %) of the combination exceeds the expected antifungal activity (E in %) of the combination and the synergy factor O/E is thus >1.0, the combined application of the active ingredients leads to a synergistic antifungal effect.
# Application: The broad bean pods were washed under tap water, and were subsequently surface sterilized by placing them in a 0.1% sodium hypochlorite solution for 5 minutes. The pods were then rinsed with tap water and dried. Transparent plastic containers were prepared by placing a piece of absorbing paper in the container and adding 25 ml of water, one container per treatment was used. The pods were cut in two, and two halve pods were incubated per box. The skin of broad bean pods was damaged with a needle, ø 2 mm and to a depth of about 3 mm into the fruit, with—depending on the size of the pod—2 to 4 wounds per half pod. In total, 6 wounds were incubated per treatment, of which 1 was used as a control. A volume of 20 microliter of a natamycin/insecticide composition, as presented herein above, was applied by pipette to each wound. The treatments were then left to air-dry. Once dried, a mycelium plug of Sclerotinia sclerotiorum was placed upside down on each wound, so that the mycelium was in direct contact with the wound. Per treatment 5 wounds were inoculated with the fungus, while the 6th and last wound was used as negative non-inoculated control. After inoculation, the containers were directly closed with a transparent plastic lid.
# The infection area was measured 5 days after inoculation.
# A few changes were made for the banana experiments: 5 wounds per banana were made, on each wound 40 microliter of treatments was pipetted. The treatments were then left to air-dry. Once dried, 2 microliter of a freshly prepared inoculum was pipetted on four of the wounds. The inoculum consists of […] potato dextrose broth (PDB) medium containing Botrytis cinerea spores at a concentration of 10^6 spores per ml. The fifth wound was used as negative non-inoculated control. Experiment was performed in 4-fold.
# Assessment of the infection area was performed 3 days after inoculation. Experiment was performed in 4-fold.
# Imidacloprid was formulated as described in Table 2. Assessment of the efficacy was 5 days after inoculation. Experiment was performed in 4-fold.
# Colletotrichum spp. = test: Antifungal effect against Colletotrichum infection on wounded skin of pepper fruits (Colby synergy); format: in vivo
# Description: as §1, with “effect. […]” for “effect.”
# For the treatment, 5 wounds per pepper side were done as previously described. In addition, one wound was done as negative control. Depending on the number of sides of the pepper, 3 to 4 treatments were done per paprika. Per wound 10 μl of treatment was placed on the wound. The treatments were let to dry in a down flow cabinet for about 30 minutes. After drying 5 μl spore suspension at a concentration of 10^7 spores per ml were placed on the wounds. The fungus was isolated from Colletotrichum-infected plant material and identified using techniques known to the person skilled in the art. The pepper were placed as described previously in a transparent container, with the difference that the containers were then placed in a transparent plastic zipper bag. The bags with peppers were placed at room temperature and in the dark for two days. After that the size of the lesions were measured. Assessment of the infection area was 4 days after inoculation. Experiment was performed in 5-fold.
# (§2) The fungus was isolated from Colletotrichum-infected plant material and identified using techniques known to the person skilled in the art. Assessment of the infection area was performed 5 days after inoculation. Experiment was performed in 5-fold.
# as §2, with “The active ingredient imidacloprid was formulated as described in Table 2. Imidacloprid belonging to IRAC Group 4. The” for “The”
# The fungus was isolated from Colletotrichum-infected plant material and identified using techniques known to the person skilled in the art. Assessment of the efficacy was 5 days after inoculation. Experiment was performed in 5-fold.
# The fungus was isolated from Colletotrichum-infected plant material and identified using techniques known to the person skilled in the art. Assessment of the infection area was performed 6 days after inoculation. Experiment was performed in 5-fold.
# The fungus was isolated from Colletotrichum-infected plant material and identified using techniques known to the person skilled in the art. Assessment of the infection area was performed 4 days after inoculation. Experiment was performed in 5-fold.
# [1] = 3 days after inoculation, Table 14A
# [2] = 3 days after inoculation, Table 14B
# [3] = 5 days after inoculation, Table 12A
# [4] = 5 days after inoculation, Table 12B
# [5] = 5 days after inoculation, Table 18A
# [6] = 5 days after inoculation, Table 18B
# [7] = natamycin-insecticide 1:0 ppm, 4 days after inoculation, Table 13
# [8] = natamycin-insecticide 1:0 ppm, 5 days after inoculation, Table 15
# [9] = natamycin-insecticide 1:0 ppm, 5 days after inoculation, Table 16
# [10] = natamycin-insecticide 1:0 ppm, 5 days after inoculation, Table 17
# [11] = natamycin:abamectin 1:0 ppm, 4 days after inoculation, Table 20
# [12] = natamycin:fipronil 1:0 ppm, 6 days after inoculation, Table 19
structure (smiles),measurement,setting,value
C[C@@H]1C/C=C/C=C/C=C/C=C/[C@H](O[C@@H]2O[C@H](C)[C@@H](O)[C@H](N)[C@@H]2O)C[C@@H]2O[C@](O)(C[C@@H](O)C[C@H]3O[C@@H]3/C=C/C(=O)O1)C[C@H](O)[C@H]2C(=O)O [natamycin],Avg infected area,Botrytis cinerea; [1],9.2 mm2
same,Observed antifungal activity,Botrytis cinerea; [1],18.8%
same,Avg infected area,Botrytis cinerea; [2],5.5 mm2
same,Observed antifungal activity,Botrytis cinerea; [2],43.9%
same,Avg infected area,Botrytis cinerea; [3],52.6 mm2
same,Observed antifungal activity,Botrytis cinerea; [3],18.0%
same,Avg infected area,Botrytis cinerea; [4],84.7 mm2
same,Observed antifungal activity,Botrytis cinerea; [4],14.3%
same,Avg infected area,Botrytis cinerea; [5],30.7 mm2
same,Observed antifungal activity,Botrytis cinerea; [5],37.6%
same,Avg infected area,Botrytis cinerea; [6],25.9 mm2
same,Observed antifungal activity,Botrytis cinerea; [6],11.6%
same,Avg infected area,Colletotrichum spp.; [7],10.6 mm2
same,Observed antifungal activity,Colletotrichum spp.; [7],33.8%
same,Avg infected area,Colletotrichum spp.; [8],30.2 mm2
same,Observed antifungal activity,Colletotrichum spp.; [8],28.6%
same,Avg infected area,Colletotrichum spp.; [9],30.2 mm2
same,Observed antifungal activity,Colletotrichum spp.; [9],28.6%
same,Avg infected area,Colletotrichum spp.; [10],22.4 mm2
same,Observed antifungal activity,Colletotrichum spp.; [10],59.5%
same,Avg infected area,Colletotrichum spp.; [11],13.5 mm2
same,Observed antifungal activity,Colletotrichum spp.; [11],39.8%
same,Avg infected area,Colletotrichum spp.; [12],24.7 mm^2
same,Observed antifungal activity,Colletotrichum spp.; [12],50.7%
